US20190274948A1, “PREBIOTIC COSMETIC COMPOSITIONS AND USE OF THE PREBIOTIC COSMETIC COMPOSITIONS” (Natura Cosméticos S.A., priority 2016, published 2019)
Where two headings read alike, the source gives them in different places.

Assays:
IL-10 = IL-10 synthesis in human fibroblast cultures stimulated with PMA/LPS; format: cell-based; conditions: concentration not given; vs PMA/LPS Control
GAG = conditions: 72 hours
IL-8 = IL-8 synthesis in human fibroblast cultures stimulated with LPS; format: cell-based; conditions: 3.12% (w/v); vs LPS Control
[1] = test system: Staphylococcus epidermidis; experiment: Prebiotic activity: growth in minimal carbon support medium; format: cell-based; conditions: 0.5%
Procedure: (§1) When a concentration of 10^4 UFC/ml was reached, the micro-organisms were transferred to a minimal carbon support medium that provided the conditions required for micro-organism replication.
(§2) Each active ingredient in the compositions addressed by this invention was added to the culture medium and cultivated. Should any increased count be noted, the ingredient would be considered as having prebiotic activity.
(§3) The results of each assay were submitted to statistical analysis. The active ingredients used in the prebiotic cosmetic compositions addressed by this invention were tested on different micro-organisms.
(§4) The beneficial micro-organisms assayed were: Staphylococcus epidermidis, Staphylococcus xylosus, Staphylococcus warneri, Staphylococcus captis and Corynebacterium xerosis.

Staphylococcus xylosus = experiment: as above; format: cell-based
Procedure: as §1, §2, §3, §4

IL-6 = IL-6 synthesis in human fibroblast cultures stimulated with PMA/LPS; format: cell-based; conditions: vs PMA/LPS Control
human fibroblasts = experiment: Cell proliferation in human fibroblast cultures; format: cell-based; conditions: for increase of proliferation: vs Control group
Text: As a positive assay control, human fibroblasts were cultivated in a culture medium supplemented with 2% of fetal bovine serum.

elastin = experiment: Elastin synthesis in human fibroblast cultures; format: cell-based; conditions: 48 hours, vs Baseline Control
Procedure: Human fibroblast cultures were incubated for 48 hours with the product.

MMP-1 = MMP-1 synthesis in human fibroblast cultures stimulated with LPS; format: cell-based; conditions: 6.25% (p/v); vs PMA/LPS Control
[2] = test system: tested skin-dwelling micro-organisms; experiment: Prebiotic activity on panel of beneficial and undesirable skin micro-organisms; format: cell-based; conditions: FIG. 1
Procedure: as §1, §2, §3, §4
The undesirable micro-organisms assayed were: Staphylococcus aureus, Corynebacterium striatum, Corynebacterium jeikeium, Propioniumbacteria acnes and Candida albicans.

Molecule	reductions of IL-10 synthesis (IL-10)	lowering of GAG levels (GAG; 3.12% (w/v))	lowering of GAG levels (GAG; 6.25% (w/v))	reduction of IL-8 synthesis (IL-8)	growth of S. epidermidis [1]	growth of S. xylosus (Staphylococcus xylosus)	drop of IL-6 synthesis (IL-6; 3.12% (w/v))	drop of IL-6 synthesis (IL-6; 6.25% (w/v))	increase of proliferation (human fibroblasts; 1.563% (w/v))	increase of proliferation (human fibroblasts; 6.250% (w/v))	Fibroblast proliferation, Increase (human fibroblasts; Table 1)	increase of elastin synthesis (elastin; 1.56% (w/v))	increase of elastin synthesis (elastin; 3.12% (w/v))	increase of elastin synthesis (elastin; 6.25% (w/v))	reduction in MMP-1 synthesis (MMP-1)	selectivity for any of the tested skin-dwelling micro-organisms [2]
OC[C@H]1O[C@H](O[C@H]2O[C@H](CO)[C@@H](O)[C@H](O)[C@H]2O)[C@H](O)[C@@H](O)[C@@H]1O [trehalose]	up to 31%	23%	59%	16%	selectively favored the growth	selectively favored the growth	19%	78%	33%	12.25%	of 33%	75%	68%	60%	20%	
inulin																did not present selectivity
